# Measured values published in patent US20230338510A1, “NOVEL C[…] EPITOPE P[…] AND USE THEREOF” (SHANGHAI INSTITUTE OF MATERIA MEDICA, CHINESE ACADEMY OF …, priority 2020, published 2023).
# How the values were obtained:
# [1] = test system: RBD; format: in vivo; conditions: cynomolgus monkeys, subcutaneous immunization with adjuvant, 14 days after the second immunization; FIG. 8
# [2] = test system: binding of RBD to ACE2; assay: competitive ELISA: ability of antiserum to block the binding of RBD and ACE2; format: in vivo, cynomolgus monkeys
# [3] = target: human ACE2 (Homo sapiens, UniProt Q9BYF1); assay: in vitro binding of biotin-labeled LP2 to ACE2 by ELISA; conditions: biotin-labeled polypeptide 1, 0.5 and 0.25 µg/mL, ACE2-coated plate; FIG. 10
# Method: In this example, LP2 was labeled with biotin, and its binding ability with human ACE2 was detected by ELISA.
# The specific determination method is as follows: the ELISA plate was coated overnight with 10ug/mL ACE2 and blocked, then biotin-labeled polypeptides of different concentrations (1, 0.5 and 0.25 µg/mL) were added. After incubated at 37° C. for 1.5 hours, HRP-Streptavidin A diluted in 1:5000 was added, and incubated at 37° C. for 1 hour. The plate was washed, then TMB was added for color development, and the plate was read at 450 nm wavelength after termination.
# Sequence of human ACE2 (Q9BYF1 18-805): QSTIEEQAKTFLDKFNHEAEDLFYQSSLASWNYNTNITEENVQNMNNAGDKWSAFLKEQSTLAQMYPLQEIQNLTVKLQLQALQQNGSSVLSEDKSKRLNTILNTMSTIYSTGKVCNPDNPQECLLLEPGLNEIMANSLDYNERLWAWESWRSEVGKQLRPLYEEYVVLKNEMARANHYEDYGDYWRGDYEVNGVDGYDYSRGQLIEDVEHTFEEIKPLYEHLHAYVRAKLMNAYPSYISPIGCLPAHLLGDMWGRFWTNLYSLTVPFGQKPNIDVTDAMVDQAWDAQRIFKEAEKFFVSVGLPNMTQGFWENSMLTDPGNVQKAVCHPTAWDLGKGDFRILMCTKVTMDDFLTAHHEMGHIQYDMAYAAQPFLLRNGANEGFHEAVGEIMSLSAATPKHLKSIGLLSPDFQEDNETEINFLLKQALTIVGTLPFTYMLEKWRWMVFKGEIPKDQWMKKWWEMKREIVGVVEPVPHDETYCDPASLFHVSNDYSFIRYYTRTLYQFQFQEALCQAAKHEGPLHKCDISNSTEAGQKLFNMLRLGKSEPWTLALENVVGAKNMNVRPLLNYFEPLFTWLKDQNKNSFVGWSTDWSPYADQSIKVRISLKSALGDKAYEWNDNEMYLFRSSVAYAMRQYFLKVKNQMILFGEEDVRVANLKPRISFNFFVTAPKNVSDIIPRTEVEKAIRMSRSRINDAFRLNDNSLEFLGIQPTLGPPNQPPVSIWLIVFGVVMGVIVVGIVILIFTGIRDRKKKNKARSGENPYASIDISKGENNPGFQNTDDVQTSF
sequence,measurement,setting,value
AKFVAAWTLKAAAGGGGYGFQPTNGVGYQPGGGGNYLYRLFRKSNLKPF [LP2],titer of antibodies against RBD,[1],higher titer of antibodies against RBD was produced
same,blocking effect of antiserum on the binding of RBD to ACE2,[2]; antiserum at 8-64 times of dilution,significant blocking effect
same,inhibition rate,[2]; antiserum at 8 times of dilution,more than 60%
same,inhibition rate,[2]; antiserum at 16 times of dilution,more than 40%
same,binding ability with ACE2,[3],strong binding ability
